Results on 1 substance are retold here after patent US8093216B2, “Method of treating cancer by inhibition of p95HER-2 production” (Oregon Health & Science University, priority 1998, dated 2012).

“Also recorded” adds a separate entry of the source. Bounds are passed on as bounds.

For assay [1], the system named is p95HER-2. The assay is described as follows: Cell level of truncated p95HER-2, Western blot of cell extracts with anti-neu (C), BT474 cells. It counts as cell-based, human. As to the method: BT474 cells in serum-free medium were treated for 24 hrs with the control vehicle or with 1, 10, 20, and 40 μM TAPI (a gift from Immunex, Seattle, Wash.). In the top panel (FIG. 5A), the concentrated, conditioned media, normalized to the amount of cell extract, were analyzed by western blotting with anti-neu (N). […] In the lower panel (FIG. 5B), 20 μg of cell proteins were analyzed by Western blotting using anti-neu (C). […]
Therefore, effects of different concentrations of the hydroxamic acid, TAPI (Mohler et al., Nature 370:218-220, 1994) was tested on shedding of HER-2/neu ECD and on cell levels of p95.
Background: In western blotting, separated proteins are transferred to a membrane and probed.

The subject of the next assay is HER-2/neu ECD. The assay is described as follows: Shedding of HER-2/neu ECD into conditioned media, Western blot with anti-neu (N), BT474 cells. It counts as cell-based, human. Here is the method: Cells were treated for 24 hrs in serum-free medium with control vehicle or with 500 nM of the phorbol ester TPA and 50 μM chloroquine. In the top panel (FIG. 4A), 5 ml of conditioned media was concentrated 100 fold, denatured under nonreducing conditions, and aliquots normalized to cell extract protein were analyzed by western blotting with anti-neu (N) monoclonal antibody at 1 μg/ml. In the lower panel (FIG. 4B), 20 μg of cell proteins were analyzed by Western blotting using anti-neu (C). The data shown in FIG. 4 are representative of three replicate experiments.
BT474 cells in serum-free medium were treated for 24 hrs with the control vehicle or with 1, 10, 20, and 40 μM TAPI (a gift from Immunex, Seattle, Wash.). In the top panel (FIG. 5A), the concentrated, conditioned media, normalized to the amount of cell extract, were analyzed by western blotting with anti-neu (N). […] In the lower panel (FIG. 5B), 20 μg of cell proteins were analyzed by Western blotting using anti-neu (C).
Tyrosine phosphorylation of tyrosine kinase receptors generally indicates their activation in signaling (Hynes et al., Biochem. Biophys. Acta 1198:165-184, 1994; and Dougall et al., Oncogene 9: 2109-2123, 1994). The tyrosine phosphorylation of p95HER-2, and its subcellular location were examined by fractionation of BT474 cell extracts into a soluble fraction and a particulate fraction. Each fraction was immunoprecipitated with anti-neu (C) and then subjected to Western blot analysis using monoclonal antibodies against phosphotyrosine. […]
To determine whether p95HER-2 and ECD were coordinately regulated, TPA (500 nM) and chloroquine (50 μM) or the control vehicle were added to the culture media of BT474 and SKOV3 cells. […] At 24 hrs, the ECD levels in the extracellular media and p95HER-2 levels in the cell extract were analyzed. […]

A further assay relates to p185HER-2/neu. As to the kind of experiment: p185HER-2/neu level in treated cells, Western blot with anti-neu (C). It counts as cell-based, human. Conditions: cells treated with TAPI. Here is the method:
BT474 cells in serum-free medium were treated for 24 hrs with the control vehicle or with 1, 10, 20, and 40 μM TAPI (a gift from Immunex, Seattle, Wash.). In the top panel (FIG. 5A), the concentrated, conditioned media, normalized to the amount of cell extract, were analyzed by western blotting with anti-neu (N). Similar results were obtained when 5 μg of protein from the conditioned media from each culture were analyzed.
This example illustrates that a metalloprotease inhibitor depressed levels of p95HER-2 and ECD from BT474 cells. Shedding of diverse transmembrane proteins is inhibited by hydroxamic acid-based compounds, which are potent metalloproteinase inhibitors (McGeehan et al., Nature 370:561, 1994; Mohler et al., Nature 370:218-220, 1994; and Arribas et al., J. Biol. Chem. 271:11376-11382, 1996). Therefore, effects of different concentrations of the hydroxamic acid, TAPI (Mohler et al., Nature 370:218-220, 1994) was tested on shedding of HER-2/neu ECD and on cell levels of p95. TAPI (0 to 40 μM) was added to cultured BT474 cells for 24 hrs, the ECD in concentrated conditioned media was analyzed by immunoblotting with anti-neu (N), and p95HER-2 and p185HER-2 polypeptides were examined in cell extracts using an anti-neu (C) monoclonal antibody. […] A residual amount of about 10% of the ECD resisted inhibition by even 40 μM TAPI.

The test system of assay [2] is p95HER-2. As to the kind of experiment: p95HER-2 level in a further, unnamed cell line treated with TAPI. It counts as cell-based.
Setting [3] is: 1 μM TAPI, three separate experiments.
[4] abbreviates: BT474 cells, 24 hrs, 1, 10, 20 and 40 μM TAPI.

In the case of TAPI, the “inhibition of p95HER-2 level” value in the assay with p95HER-2 [1] (setting [3]) is at most 50%. Further, the “level of truncated p95HER-2 at 1 μM TAPI” value in the assay with p95HER-2 [1] (BT474 cells, 24 hrs, 1 μM) is reported as “little or no effect”. Moreover, the “effect on p95HER-2 level” value in the assay with p95HER-2 [1] (setting [4]) is on record as “inhibited; also recorded: suppressed”. Further, in the assay with HER-2/neu ECD (setting [3]), the “inhibition of ECD level” value is given as at most 50%. Further, in the assay on HER-2/neu ECD (setting [4]), the “effect on ECD level” value is given as “inhibited; also recorded: suppressed”. Also, the “production of ECD at 1 μM TAPI” value in the assay on HER-2/neu ECD (BT474 cells, serum-free medium, 24 hrs, 1 μM) is given as “partially inhibited”. In addition, the “change in p185HER-2/neu levels” value in the assay on p185HER-2/neu was “No change”. Further, the “effect on p95HER-2 in a cell line” value with p95HER-2 [2] was “increased”.
